# In patent publication US20070149508A1, “Six membered heteroaromatic inhibitors targeting resistant kinase mutations” (TargeGen, Inc., priority 2005, published 2007):
# Where a name gives a salt, the structure may show the parent alone.
# Legend:
# Abl (T315I) = target: T1, Abl (T315I) (Homo sapiens, UniProt P00519, T315I); assay: Abl (T315I) Kinase Assay (KinaseGlo luminescent detection of residual ATP); assay type: biochemical; conditions: Abl (T315I) IC50 (nM), Abl (T315I) (Upstate, 17 ng/well), Abltide 100 uM, ATP 500 nM, 60 minutes at 37° C.
# T1 construct: purchased Upstate
# Method: The assay was performed similarly to the Abl kinase assay. Abl (T315I) (Upstate, 17 ng/well); Abltide substrate (100 uM) and ATP (500 nM) comprised the reaction mixture. Compound was similarly diluted, and the reaction plate was incubated for 60 minutes at 37° C.
# Abl kinase = Abl kinase (Homo sapiens, UniProt P00519); assay: biochemical; conditions: Abl IC50 (nM), Abl kinase (Invitrogen, 20 ng/well), Abltide 100 μM, ATP 500 nM, 37° C. for 60 minutes, top concentration 10 uM
# Method: Kinase activity was assessed using luminescent detection (KinaseGlo, Promega) of residual ATP concentration in reaction mixtures containing optimized levels of kinase, substrate, ATP, compound and appropriate buffers. Kinase, substrate and ATP concentrations were determined per the supplier's recommendations. Briefly, this involved running concentration curves to select for optimal signal.
# The reaction mixture (50 ul/well) consisted of Abl kinase (Invitrogen, 20 ng/well); Abltide peptide substrate (Upstate, 100 μM) and ATP (500 nM). Each compound was evaluated at a top concentration of 10 uM with 1:3 dilution steps, 10 dilution steps total. Compound was diluted into DMSO and transferred to the reaction plate, resulting in a final DMSO concentration of 2%. This amount of DMSO was determined not to interfere with the enzyme. The reaction was conducted at 37° C. for 60 minutes. The degree of inhibition was assessed using IC50 determinations, which were obtained using GraphPad Prism4.
Compound,IC50 (Abl (T315I)),IC50 (Abl kinase)
"O=S(=O)(c1ccc(Nc2ncc(/C=C/c3cc(F)cc4[nH]nnc34)cn2)cc1)C1CCNCC1 [5-((E)-2-(6-fluoro-1H-benzo[d][1,2,3]triazol-4-yl)vinyl)-N-(4-(piperidin-4-ylsulfonyl)phenyl)pyrimidin-2-amine trifluoroacetate]",12 nM,7.2 nM
"Nc1cc(C(F)(F)F)cc(/C=C/c2cnc(Nc3ccc(S(=O)(=O)C4CCNCC4)cc3)nc2)c1N [3-((E)-2-(2-(4-(piperidin-4-ylsulfonyl)phenylamino)pyrimidin-5-yl)vinyl)-5-(trifluoromethyl)benzene 1,2-diamine.]",522 nM,210 nM
C=Cc1cnc(Nc2ccc(S(=O)(=O)C3CCNCC3)cc2)nc1 [N-(4-(piperidin-4-ylsulfonyl)phenyl)-5-vinylpyrimidin-2-amine trifluoroacetate],368 nM,1390 nM
O=S(=O)(NC1CCNCC1)c1ccc(Nc2ncc(/C=C/c3cccc(O)c3)cn2)cc1 [4-{5-[2-(3-Hydroxy-phenyl)-vinyl]-pyrimidine-2-ylamino}-N-piperdin-4-yl-benzenesulfonamide Hydrochloride],36 nM,4.6 nM
O=S(=O)(c1ccc(Nc2ncc(/C=C/c3cccc(O)c3)cn2)cc1)N1CCC(CCO)CC1 [3-[2-(2-{4-[4-(2-Hydroxy-ethyl)-piperidine-1-sulfonyl]-phenylamino}-pyrimidin-5-yl)-vinyl]-phenol],160 nM,18 nM
O=S(=O)(NCCN1CCCC1)c1ccc(Nc2ncc(/C=C/c3cccc4[nH]ncc34)cn2)cc1 [4-{5-[2-(1H-Indazol-4-yl)-vinyl]-pyrimidin-2-ylamino}-N-(2-pyrrolidin-1-yl-ethyl)-benzenesulfonamide],133 nM,7.6 nM
"Cc1cc(Nc2ncc(/C=C/c3ccc4nc(N)sc4c3)cn2)ccc1S(=O)(=O)N1CCCNCC1 [(E)-6-(2-(2-(4-(1,4-diazepan-1-ylsulfonyl)-3-methylphenylamino)pyrimidin-5-yl)vinyl)benzo[d]thiazol-2-amine]",593 nM,1060 nM
CN(C)CCN(C1CCNCC1)S(=O)(=O)c1ccc(Nc2ncc(/C=C/c3cccc4[nH]ccc34)cn2)cc1 [N-[2-(dimethylamino)ethyl]-4-({5-[(E)-2-(1H-indol-4-yl)vinyl]pyrimidin-2-yl}amino)-N-piperidin-4-ylbenzenesulfonamide],182 nM,25 nM
"Nc1nc2ccc(/C=C/c3cnc(Nc4ccc(S(=O)(=O)N(CCO)C5CCNCC5)cc4)nc3)cc2s1 [4-({5-[(E)-2-(2-amino-1,3-benzothiazol-6-vinyl]pyrimidin-2-yl}amino)-N-(2-hydroxyethyl)-N-piperidin-4-ylbenzenesulfonamide]",33 nM,84 nM
O=S(=O)(c1ccc(Nc2ncc(/C=C/c3ccc(-c4cn[nH]c4)cc3)cn2)cc1)N1CCNCC1 [N-[4-(piperazin-1-ylsulfonyl)phenyl]-5-{(E)-2-[4-(1H-pyrazol-4-yl)phenyl]vinyl}pyrimidin-2-amine],1230 nM,3800 nM
NC1CCN(S(=O)(=O)c2ccc(Nc3ncc(/C=C/c4cccc5[nH]ccc45)cn3)cc2)CC1 [N-{4-[(4-aminopiperidin-1-yl)sulfonyl]phenyl}-5-[(E)-2-(1H-indol-4-yl)vinyl]pyrimidin-2-amine],347 nM,13 nM
Nc1nc2cc(C(F)(F)F)cc(/C=C/c3cnc(Nc4ccc(S(=O)(=O)C5CCNCC5)cc4)nc3)c2[nH]1 [7-((E)-2-(2-(4-(piperidin-4-ylsulfonyl)phenylamino)pyrimidin-5-yl)vinyl)-5-(trifluoromethyl)-1H-benzo[d]imidazol-2-amine],254 nM,130 nM
O=S(=O)(c1ccc(Nc2ccc(/C=C/c3cccc(O)c3)cn2)cc1)C1CCNCC1 [3-((E)-2-(6-(4-(piperidin-4-ylsulfonyl)phenylamino)pyridin-3-yl)vinyl)phenol hydrochloride],192 nM,32 nM
"O=S(=O)(c1ccc(Nc2ncc(/C=C/c3cc(C(F)(F)F)cc4[nH]nnc34)cn2)cc1)N1CCCNCC1 [[4-([1,4]Diazepane-1-sulfonyl)-phenyl]-{5-[2-(6-trifluoromethyl-1H-benzotriazol-4-yl)-vinyl]-pyrimidin-2-yl}-amine]",67 nM,59 nM
Nc1nc2ccc(/C=C/c3cnc(Nc4ccc(S(=O)(=O)N5CCCC(O)C5)cc4)nc3)cc2s1 (stereo not drawn) [(E)-1-(4-(5-(2-(2-aminobenzo[d]thiazol-6-yl)vinyl)pyrimidin-2-ylamino)phenylsulfonyl)piperidin-3-ol],214 nM,432 nM
"O=S(=O)(c1ccc(Nc2ncc(/C=C/c3ccc(O)c(O)c3)cn2)cc1)C1CCNCC1 [4-((E)-2-(2-(4-(piperidin-4-ylsulfonyl)phenylamino)pyrimidin-5-yl)vinyl)benzene-1,2-diol Hydrochloride]",40 nM,25 nM

Compound,IC50 (Abl (T315I)),IC50 (Abl kinase)
"O=C1Cc2c(/C=C/c3cnc(Nc4ccc(S(=O)(=O)C5CCNCC5)cc4)nc3)cccc2N1 [4-(2-{2-[4-(Piperidine-4-sulfonyl)-phenylamino]-pyrimidin-5-yl}-vinyl)-1,3-dihydro-indol-2-one, hydrogen chloride]",2270 nM,127 nM
O=S(=O)(NCCN1CCCC1)c1ccc(Nc2ncc(/C=C/c3cc(O)ccc3Cl)cn2)cc1 [4-{5-[2-(2-Chloro-5-hydroxy-phenyl)-vinyl]-pyrimidin-2-ylamino}-N-(2-pyrrolidin-1-yl-ethyl)-benzenesulfonamide],390 nM,7.7 nM
O=S(=O)(c1ccc(Nc2ncc(/C=C/c3cccc(-c4cn[nH]c4)c3)cn2)cc1)C1CCNCC1 [5-(3-(1H-pyrazol-4-yl)styryl)-N-(4-(piperidin-4-ylsulfonyl)phenyl)-pyrimidin-2-amine Hydrochloride],1980 nM,1740 nM
N#Cc1ccc(Nc2ncc(/C=C/c3cccc4[nH]ccc34)cn2)cc1 [4-(5-((E)-2-(1H-indol-4-yl)vinyl)pyrimidin-2-ylamino)benzonitrile],> 10000 nM,174 nM
NCC(=O)N1CCC(S(=O)(=O)c2ccc(Nc3ncc(/C=C/c4cccc5[nH]ccc45)cn3)cc2)CC1 [1-(4-(4-(5-((E)-2-(1H-indol-4-yl)vinyl)pyrimidin-2-ylamino)phenylsulfonyl)piperidin-1-yl)-2-aminoethanone hydrochloride],700 nM,66 nM
O=S(=O)(NCCO)c1ccc(Nc2ncc(/C=C/c3cccc(O)c3)cn2)cc1N1CCNCC1 [N-(2-hydroxyethyl)-4-({5-[(E)-2-(3-hydroxyphenyl)vinyl]pyrimidin-2-yl}amino)-2-piperazin-1-ylbenzenesulfonamide trifluoroacetic acid salt],514 nM,66 nM
O=C(Nc1ccc(Cl)c(/C=C/c2cnc(Nc3ccc(S(=O)(=O)C4CCNCC4)cc3)nc2)c1)c1cccc(C(F)(F)F)c1 [N-[4-Chloro-3-(2-{2-[4-(piperidine-4-sulfonyl)-phenylamino]-pyrimidin-5-yl}-vinyl)-phenyl]-3-trifluoromethyl-benzamide],2000 nM,12 nM
O=S(=O)(c1cccc(Nc2ncc(/C=C/c3cccc4[nH]ccc34)cn2)c1)N1CCNCC1 [5-[(E)-2-(1H-indol-4-yl)vinyl]-N-{3-(piperazin-1-ylsulfonyl)phenyl]pyrimidin-2-amine],~10000 nM,244 nM
"Nc1nc2ccc(/C=C/c3cnc(Nc4ccc(S(=O)(=O)N5CCCNCC5)cc4)nc3)cc2s1 [(E)-6-(2-(2-(4-(1,4-diazepan-1-ylsulfonyl)phenylamino)pyrimidin-5-yl)vinyl)benzo[d]thiazol-2-amine]",22 nM,39 nM
COc1cccc(/C=C/c2cnc(Nc3ccc(S(=O)(=O)C4CCNCC4)cc3)nc2)c1 [{5-[2-(3-Methoxy-phenyl)-vinyl]-pyrimidin-2-yl}-[4-piperidine-4-sulfonyl)-phenyl]-amine],664 nM,172 nM
COCCN1CCN(S(=O)(=O)c2ccc(Nc3ncc(/C=C/c4ccc5nc(N)sc5c4)cn3)cc2)CC1 [6-[2-(2-{4-[4-(2-Methoxy-ethyl)-piperazine-1-sulfonyl]-phenylamino}-pyrimidin-5-yl)-vinyl]-benzothiazol-2-ylamine],380 nM,1150 nM
CN1CCN(C(=O)c2ccc(Nc3ncc(/C=C/c4cccc5[nH]ccc45)cn3)cc2)CC1 [5-[(E)-2-(1H-indol-4-yl)vinyl]-N-{4-[(4-methylpiperazin-1-yl)carbonyl]phenyl}pyrimidin-2-amine],852 nM,41 nM
O=S(=O)(c1ccc(Nc2ncc(/C=C/c3cccc4[nH]ncc34)cn2)cc1)N1CCNCC1 [{5-[2-(1H-Indazol-4-yl)-vinyl]-pyrimidin-2-yl}-[4-(piperazine-1-sulfonyl)-phenyl]-amine],289 nM,44 nM
"O=S(=O)(c1ccc(Nc2ncc(/C=C/c3cc(Cl)cc4[nH]nnc34)cn2)cc1)N1CCCNCC1 [[4-([1,4]Diazepane-1-sulfonyl)-phenyl]-{5-[2-(6-chloro-1H-benzotriazol-4-yl)-vinyl]-pyrimidin-2-yl}-amine]",16 nM,41 nM
OCCN1CCN(c2cccc(Nc3ncc(/C=C/c4cccc5[nH]ccc45)cn3)c2)CC1 [2-(4-(3-(5-((E)-2-(1H-indol-4-yl)vinyl)pyrimidin-2-ylamino)phenyl)piperazin-1-yl)ethanol Hydrochloride],,178 nM
Nc1cccc(/C=C/c2cnc(Nc3ccc(S(=O)(=O)C4CCNCC4)cc3)nc2)c1 [15-(3-aminostyryl)-N-(4-(piperidin-4-ylsulfonyl)phenyl)pyrimidin-2-amine Hydrochloride],561 nM,31 nM
